From paper PMC10377643, “Exploration of Bis-Cinnamido-Polyamines as Intrinsic Antimicrobial Agents and Antibiotic Enhancers” (Biomolecules, 2023)
Values after ≈ are worked out from the molar mass of the structure shown. Like-named read-outs stand apart in the source and are kept apart here.

Key:
human red blood cells = test: Hemolytic assay; assay type: cell-based; details: mean (n = 2)
Experimental: Hemolysis assays were conducted using the protocols previously reported.

MRSA ATCC 43300 = test: Antimicrobial MIC, MRSA (CO-ADD); assay type: cell-based, methicillin-resistant S. aureus; details: Staphylococcus aureus, read-out: MIC MRSA
Experimental: (§1) The susceptibility of bacterial strains S. aureus (ATCC 25923), E. coli (ATCC 25922) and P. aeruginosa (ATCC 27853) to antibiotics and compounds was determined using protocols reported previously. Additional antimicrobial evaluation against MRSA (ATCC 43300), Klebsiella pneumoniae (ATCC 700603), Acinetobacter baumannii (ATCC 19606), Candida albicans (ATCC 90028) and Cryptococcus neoformans (ATCC 208821) was undertaken at the Community for Open Antimicrobial Drug Discovery at The University of Queensland (Australia) according to their standard protocols reported previously.

Pseudomonas aeruginosa = tested on: Pseudomonas aeruginosa; set-up: method as in PMID 22515429; details: natural product; cited from earlier work
E. coli ATCC 25922 [1] = test: Antimicrobial MIC, E. coli; assay type: cell-based, Escherichia coli; details: Escherichia coli, ATCC25922, E. coli ATCC 25922; mean (n = 3)
Experimental: as §1

S. aureus ATCC 25923 = test: Antimicrobial MIC, S. aureus; assay type: cell-based; details: Staphylococcus aureus, ATCC25923, mean (n = 3)
Experimental: as §1

P. aeruginosa ATCC 27853 [2] = test: Antimicrobial MIC, P. aeruginosa; assay type: cell-based; details: Pseudomonas aeruginosa, ATCC27853, mean (n = 3)
Experimental: as §1

Cytotoxicity assay = assay type: cell-based, human; details: human, HEK293 human embryonic kidney cells, mean (n = 2), read-out: Cytotoxicity (IC50), concentration of compound at 50% cytotoxicity
Experimental: (§2) Cytotoxicity assays were conducted using the protocols previously reported.

S. aureus = tested on: S. aureus; set-up: method as in PMID 22515429; details: natural product; cited from earlier work
E. coli ATCC 25922 [3] = test: Erythromycin enhancement against E. coli; assay type: cell-based, Escherichia coli; details: erythromycin fixed at 10.9 µM (8 µg/mL)
Experimental: (§3) Antibiotic enhancer concentrations were determined using previously reported protocols.

C. albicans ATCC 90028 = test: Antifungal MIC, C. albicans (CO-ADD); assay type: cell-based; details: Candida albicans, ATCC90028, mean (n = 2)
Experimental: as §1

[4] = tested on: C. neoformans ATCC 208821; test: Antifungal MIC, C. neoformans (CO-ADD); assay type: cell-based; details: Cryptococcus neoformans, ATCC208821, mean (n = 2)
Experimental: as §1

P. aeruginosa ATCC 27853 [5] = test: Doxycycline enhancement against P. aeruginosa; assay type: cell-based, Pseudomonas aeruginosa; details: doxycycline fixed at 4.5 µM
Experimental: as §3
We then evaluated the set of analogues for the ability to enhance the antibiotic activity of doxycycline against P. aeruginosa ATCC 27853 and of erythromycin against E. coli ATCC 25922 (Table 2). In the case of doxycycline, a fixed concentration of the antibiotic of 4.5 μM, which is twenty-fold lower than the intrinsic MIC 90 μM against this organism, was used. Each of the test compounds was then evaluated at a range of concentrations varying from 3.125 to 50–100 μM, with the upper concentration dependent upon the compounds intrinsic MIC towards P. aeruginosa (Table 1). […] While the observation of cytotoxicity/hemolytic properties of 16a–c, 14f and 13f reduces our interest in these analogues, analogues 13b and 13d were identified as non-toxic and strong enhancers of the action of doxycycline towards P. aeruginosa.

K. pneumoniae ATCC 13883 = test: Intrinsic MIC, K. pneumoniae ATCC 13883; assay type: cell-based; details: Klebsiella pneumoniae
Experimental: as §3

P. aeruginosa PAO1 = test: Intrinsic MIC, P. aeruginosa PAO1; assay type: cell-based; details: Pseudomonas aeruginosa
Experimental: as §3

A. baumannii AYE = test: Intrinsic MIC, A. baumannii AYE; assay type: cell-based; details: Acinetobacter baumannii, read-out: MIC alone, A. b
Experimental: as §3

[6] = tested on: HEK293 human embryonic kidney cells; test: Cytotoxicity assay; assay type: cell-based; details: mean (n = 2)
Experimental: as §2

[7] = ATCC13883, K. pneumoniae ATCC 13883, substance alone, read-out: MIC alone, K. p
[8] = P. aeruginosa PAO1, substance alone (no antibiotic / no enhancer), read-out: MIC alone, P. a
[9] = A. baumannii AYE, substance alone

MIC (K. pneumoniae ATCC 13883; [7]) [µM]	MIC (P. aeruginosa PAO1; [8]) [µM]	MIC (A. baumannii AYE; [9]) [µM]	Structure (SMILES)	Hemolysis (HC10), concentration of compound at 10% hemolytic activity (human red blood cells) [µM]	MIC (MRSA ATCC 43300; MRSA ATCC 43300, mean (n = 2)) [µM]	MIC (E. coli ATCC 25922 [1]) [µM]	MIC (S. aureus ATCC 25923) [µM]	MIC (P. aeruginosa ATCC 27853 [2]) [µM]	IC50 (Cytotoxicity assay) [µM]	Eryth/E. c: concentration required to restore erythromycin activity (E. coli ATCC 25922 [3]) [µM]	Eryth/E. c: fold change (intrinsic MIC of test compound / combination MIC) (E. coli ATCC 25922 [3]) [fold]	MIC (C. albicans ATCC 90028) [µM]	MIC [4] [µM]	Dox/P. a: concentration required to restore doxycycline activity (P. aeruginosa ATCC 27853 [5]) [µM]	also measured
			COc1c(Br)cc(/C=C/C(=O)NCCCNCCCCNCCCNC(=O)/C=C/c2cc(Br)c(OC)c(Br)c2)cc1Br.O=C(O)C(F)(F)F.O=C(O)C(F)(F)F [Compound 16a, N^1,N^4-Bis(3-((E)-3-(3,5-dibromo-4-methoxyphenyl)acrylamido)propyl)butane-1,4-diaminium 2,2,2-trifluoroacetate]	≤0.23	≤ 0.23	11.7	5.86	188	> 30	11.7	1	30	≤ 0.23	5.86	MIC towards Pseudomonas aeruginosa (Pseudomonas aeruginosa): 8.75 µM; MIC, growth inhibition towards S. aureus (S. aureus): 17.5 µM; Dox/P. a: fold change (intrinsic MIC of test compound / combination MIC) (P. aeruginosa ATCC 27853 [5]): 32 fold
			CN[C@H](CC(C)C)C(=O)N[C@H]1C(=O)N[C@@H](CC(N)=O)C(=O)N[C@H]2C(=O)N[C@H]3C(=O)N[C@H](C(=O)N[C@H](C(=O)O)c4cc(O)cc(O)c4-c4cc3ccc4O)[C@H](O)c3ccc(c(Cl)c3)Oc3cc2cc(c3O[C@@H]2O[C@H](CO)[C@@H](O)[C@H](O)[C@H]2O[C@H]2C[C@](C)(N)[C@H](O)[C@H](C)O2)Oc2ccc(cc2Cl)[C@H]1O [vancomycin]												MIC (MRSA ATCC 43300): 0.7 µM (≈ 1.01 µg/mL); MIC (K. pneumoniae ATCC 13883; ATCC13883, read-out: MIC alone, K. p): 138 µM (≈ 200 µg/mL); MIC (P. aeruginosa PAO1; PAO1, read-out: MIC alone, P. a): 138 µM (≈ 200 µg/mL); MIC (A. baumannii AYE): 138 µM (≈ 200 µg/mL)
			O=C(C=Cc1ccccc1)NCCCNCCCCCCCCNCCCNC(=O)C=Cc1ccccc1.O=C(O)C(F)(F)F.O=C(O)C(F)(F)F [Compound 13d, N^1,N^8-Bis(3-cinnamamidopropyl)octane-1,8-diaminium 2,2,2-trifluoroacetate]	>42.9	42.8	100	100	> 200	> 42.9	25	4	> 42.8	42.8	6.25	Cytotoxicity (IC50), concentration of compound at 50% cytotoxicity [6]: non-toxic
> 200	> 200	> 200	O=C(N[C@H](CO)[C@H](O)c1ccc([N+](=O)[O-])cc1)C(Cl)Cl [chloramphenicol]				1.5 to 3 (≈ 0.485 to 0.969 µg/mL)								
> 200	> 200	> 200	CCn1cc(C(=O)O)c(=O)c2ccc(C)nc21 [nalidixic acid]												
